Results: patent US6858396B2, “Positively charged non-natural amino acids, methods of making and using thereof in peptides” (Medical University of South Carolina, priority 1996, dated 2005)
Like-named read-outs stand apart in the source and are kept apart here. One block for each compound: values may come before it. Square brackets hold non-standard residues; d marks the D form. Ends that are not written are not given here. Peptide text beside a SMILES is read from it. hLys = NCCCCC[C@H](N)C(=O)O

What was measured:
[1] = Description: (§1) Thrombin is a major control point of the blood coagulation cascade, and inhibitors are of interest to combat thrombotic diseases.
Thrombin [2] = biological target: T1, Thrombin (Homo sapiens, UniProt P00734); assay: Thrombin inhibition (Ki); assay type: biochemical
Description: as §1

Trypsin = biological target: T2, Trypsin (Bos taurus, UniProt P00760); assay: Trypsin inhibition (Ki); assay type: biochemical; conditions: at its limit of solubility in water
T2 construct: gene PRSS1
T2 sequence (P00760 24-246): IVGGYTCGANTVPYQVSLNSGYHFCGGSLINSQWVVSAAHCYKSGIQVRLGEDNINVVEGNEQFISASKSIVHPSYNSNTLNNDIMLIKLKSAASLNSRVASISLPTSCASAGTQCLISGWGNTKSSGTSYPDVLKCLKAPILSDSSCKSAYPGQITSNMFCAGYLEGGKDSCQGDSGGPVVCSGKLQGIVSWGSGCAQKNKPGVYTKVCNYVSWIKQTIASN
Description: as §1

NT receptor = assay: Hypothermia in rats after I.V. or I.C. injection of NT(8-13) derivatives (brain uptake across the BBB); assay type: in vivo
Description: Peptides 36, 39, 42, and 45 are NT(8-13) with non-natural amino acids 32-35 (Scheme L), respectively, were substituted for the Arg^(8) residue.

Thrombin [3] = biological target: T1, Thrombin; assay: Competitive inhibition of thrombin in vitro, chromogenic substrate (D)-Phe-Pip-Arg-p-NA; assay type: biochemical; set-up: 0.01 units of human thrombin (Sigma); purchased Sigma; conditions: for % Inhibition: peptide 20 μM, 0.01 units human thrombin, pH 7.5, 25° C.
Description: A (D)-Phe-Pro-Arg-Ala analogue containing non-natural amino acid (7) (as the racemic mixture in the side chain) in place of Arg was synthesized and compared to (D)-Phe-Pro-Arg-Ala as a competitive inhibitor of thrombin in vitro. The molecule referred to as 7 is Formula I, R1=[…], R2=H, R3=H, R13=H and N=4. The stereochemistry at C2 is racemic (equal D- and L-forms present).
Peptides were incubated individually at 20 μM concentrations with 0.01 units of human thrombin (Sigma) and saturating concentrations of the chromogenic substrate (D)-Phe-Pip-Arg-p-NA at pH 7.5 and 25° C. in 0.1 M phosphate buffer containing 0.2 M NaCl and 0.5% PEG (5c). Initial rates were determined by monitoring formation of p-NA at 405 nm in the absence and presence of the indicated peptides to determine % inhibition. Standard errors were<5%.

[4] = in vivo; cited from earlier work

improvement upon the previously evaluated peptides NT-1 and NT66L (NT receptor; brain uptake): ≥ 300 fold
uptake into brain (NT receptor; rats, single 0.2-mg I.V. dose versus I.C., estimated by potency ratios (FIG. 1B)): roughly 28%
Compound: CC[C@H](C)[C@H](NC(=O)[C@H](Cc1ccc(O)cc1)NC(=O)[C@@H]1CCCN1C(=O)[C@H](CCCNC(=N)N)NC(=O)[C@@H](N)CCCCCN)C(=O)N[C@@H](CC(C)C)C(=O)O [Peptide 36] (H-[hLys]RPYIL-OH)

% Inhibition (Thrombin [3]): 82%
better competitive inhibitor than the parent peptide (Thrombin [3]; relative to (D)-Phe-Pro-Arg-Ala): ~25%
Compound: (D)-Phe-Pro-7-Ala

% Inhibition (Thrombin [3]): 65%
Compound: (D)-Phe-Pro-Arg-Ala ([dF]PRA) [reference compound]

Continued, compound first:

Compound: N=C(N)NCCC[C@H](N)C(=O)O [Arg, arginine, reference compound]
RP-HPLC Retention Time [1]: 20.9 ± 0.02 min
Ki (Thrombin [2]; as the N-α-DNS, —COO-Pip derivatives, read-out: Thrombin K12): 83 ± 24 nM

Compound: CCNC(=N)NCCC[C@H](N)C(=O)O [Compound 31, N(γ)ethyl-Arg]
inhibition of trypsin at limit of solubility in water (Trypsin): does not inhibit trypsin
lipophilicity based on RP-HPLC ([1]; compared with arginine): more lipophilic
RP-HPLC Retention Time ([1]; measure of lipophilicity, as the N-α-DNS, —COO-Pip derivatives): 23.1 ± 0.01 min
Ki (Thrombin [2]): 190 ± 66 nM
increase in thrombin/trypsin Ki selectivity ratio compared with arginine (Thrombin [2]; KI (Thrombin/Trypsin), 31 versus arginine): ≥ 60 fold

Compound: Arg^(8)-Arg^(9)-Pro^(10)-Tyr^(11)-Ile^(12)-Leu^(13)-COOH [NT(8-13), reference compound]
crossing of the blood brain barrier [4]: does not cross the blood brain barrier
activity (hypothermia) / uptake into brain after I.V. injection (NT receptor; rats, I.V., 1.0 mg doses (FIG. 1A)): no activity
